Laboratory results as given in patent US6872850B2, “Small molecule inhibitors of secretion of proteins encoded by ARE-mRNAs” (Message Pharmaceuticals, priority 2001, dated 2005).

Test system: 3′ UTR of the TNFα gene
Experiment: cell-based luciferase reporter assay, 5B cell line (luciferase gene with entire 3′ UTR of the TNFα gene)
Design: species or system mouse
Details: for Luciferase 5B (% of DMSO control) / Luciferase 5B/3B (% of DMSO control 5B)/(% of DMSO control 3B): 10 μM compound; for Luciferase 5B (% of DMSO control): 1 h, then LPS, 5B cell line; for Luciferase 5B/3B (% of DMSO control 5B)/(% of DMSO control 3B): ratio of 5B to control 3B cell line
Protocol: The candidate compounds were tested in a high-throughput, cell-based luciferase reporter assay. For this assay, a commercially available mouse macrophage Raw 264.7 cell line was stably transfected with a construct containing the CMV promoter operably linked to the luciferase gene which was modified using standard molecular biology techniques to contain the entire 3′ UTR of the TNFα gene. This 3′ UTR is important for the stability and translation of TNFα in cells. To control for effects of candidate compounds that are not specific for TNFα, a control cell line, called “3B,” was generated by stably transfecting the 264.7 cell line with a commercially available construct containing the luciferase gene (without the addition of the heterologous 3′ UTR of the TNFα gene) under the regulation of the CMV promoter.
[…] Then, lipopolysaccharide (LPS) was added to stimulate TNFα secretion. Luciferase activity was measured by determining the luminescence intensity due to the reaction of lucifern, ATP, Mg^2+, and molecular O2 (see, for example, Ausubel et al., supra). The luciferase activity in a cell incubated with a candidate compound was reported as a percentage of the luciferase activity for the corresponding cell incubated with DMSO vehicle only.
After correction for any effect caused by the administration of the DMSO only vehicle control, the effect of a candidate compound on luciferase activity in the 3B control cell line represents the global effect of the compound on any step required for expression or activity of luciferase protein, such as luciferase gene transcription, mRNA processing, mRNA stability, translation, protein stability, or enzymatic activity. […] In this case, the luciferase activity in the 5B cell line treated with the DMSO vehicle control is similar to the luciferase activity in the control 3B cell line treated with the candidate compound. Thus, the response of the 5B cell line (as a percent of the DMSO control) and the ratio of the luciferase activity in the 5B cell line (as a percent of the DMSO control) to the luciferase activity in the control 3B cell line (as a percent of the DMSO control) are similar. In desirable embodiments, the response of the 5B cell line and the 5B/3B ratio differ by less than 50, 40, 30, 20, 10, or 5%.

**Q.** For `CC(=NNC(=N)N)c1cccc(C(=O)NC(CC2CCCCC2)C(=O)N2CCN(C(=O)C(Cc3ccccc3)NC(=O)c3ccc(C(=NNC(=N)N)c4ccccc4)cc3)CC2)c1` (mixture of isomers) [MES 10181], which “effect on luciferase activity in the 5B cell line (luciferase assay), in words” value (from here on “effect on luciferase activity”) is on record?
**A.** Its value is “inhibited TNFα secretion”.

**Q.** What about the “Luciferase 5B (% of DMSO control)” value of the same compound?
**A.** Its value is 17 % of DMSO control.

**Q.** What about the “Luciferase 5B/3B (% of DMSO control 5B)/(% of DMSO control 3B)” value of the same compound?
**A.** The value was 49 (% of DMSO control 5B)/(% of DMSO control 3B).

**Q.** For `CC(=NNC(=N)N)c1cccc(C(=O)NC(C(=O)N2CCN(C(=O)C(Cc3ccccc3)NC(=O)c3ccc(C(=NNC(=N)N)c4ccccc4)cc3)CC2)C(C)C)c1` (mixture of isomers) [MES 10183], which “effect on luciferase activity” value is on record?
**A.** Its value is “inhibited TNFα secretion”.

**Q.** And the “Luciferase 5B (% of DMSO control)” value?
**A.** The value was 58 % of DMSO control.

**Q.** And the “Luciferase 5B/3B (% of DMSO control 5B)/(% of DMSO control 3B)” value?
**A.** Its value is 57 (% of DMSO control 5B)/(% of DMSO control 3B).

**Q.** With `CCCCC(NC(=O)c1ccc(C(=NNC(=N)N)c2ccccc2)cc1)C(=O)N1CCN(C(=O)C(Cc2ccccc2)NC(=O)c2ccc(C(=NNC(=N)N)c3ccccc3)cc2)CC1` (mixture of isomers) [MES 10184] as the compound, how does the “Luciferase 5B (% of DMSO control)” value read?
**A.** The value was 22 % of DMSO control.

**Q.** What about the “Luciferase 5B/3B (% of DMSO control 5B)/(% of DMSO control 3B)” value of the same compound?
**A.** The value was 35 (% of DMSO control 5B)/(% of DMSO control 3B).

**Q.** For `CC(C)CC(NC(=O)c1ccc([N+](=O)[O-])cc1)C(=O)N1CCN(C(=O)C(Cc2ccccc2)NC(=O)c2ccc(C(=NNC(=N)N)c3ccccc3)cc2)CC1` (mixture of isomers) [MES 10224], which “Luciferase 5B (% of DMSO control)” value is on record?
**A.** The value was 36 % of DMSO control.

**Q.** What about the “Luciferase 5B/3B (% of DMSO control 5B)/(% of DMSO control 3B)” value of the same compound?
**A.** Its value is 37 (% of DMSO control 5B)/(% of D.

**Q.** With `CC(C)CC(NC(=O)c1ccc(I)cc1)C(=O)N1CCN(C(=O)C(Cc2ccccc2)NC(=O)c2ccc(C(=NNC(=N)N)c3ccccc3)cc2)CC1` (mixture of isomers) [MES 10226] as the compound, how does the “effect on luciferase activity” value read?
**A.** Its value is “greatest inhibitor activity”.

**Q.** What about the “Luciferase 5B (% of DMSO control)” value of the same compound?
**A.** Its value is 23 % of DMSO control.

**Q.** And the “Luciferase 5B/3B (% of DMSO control 5B)/(% of DMSO control 3B)” value?
**A.** The value was 26 (% of DMSO control 5B)/(% of D.

**Q.** For `CC(C)CC(NC(=O)c1ccc(Cl)cc1)C(=O)N1CCN(C(=O)C(Cc2ccccc2)NC(=O)c2ccc(C(=NNC(=N)N)c3ccccc3)cc2)CC1` (mixture of isomers) [MES 10227], which “Luciferase 5B (% of DMSO control)” value is on record?
**A.** Its value is 34 % of DMSO control.

**Q.** What about the “Luciferase 5B/3B (% of DMSO control 5B)/(% of DMSO control 3B)” value of the same compound?
**A.** Its value is 39 (% of DMSO control 5B)/(% of D.

**Q.** How did the “Luciferase 5B (% of DMSO control)” value turn out when `CC(C)CC(NC(=O)c1ccc2ccccc2c1)C(=O)N1CCN(C(=O)C(Cc2ccccc2)NC(=O)c2ccc(C(=NNC(=N)N)c3ccccc3)cc2)CC1` (mixture of isomers) [MES 10228] was run?
**A.** The value was 38 % of DMSO control.

**Q.** And the “Luciferase 5B/3B (% of DMSO control 5B)/(% of DMSO control 3B)” value?
**A.** The value was 40 (% of DMSO control 5B)/(% of D.

**Q.** How did the “Luciferase 5B (% of DMSO control)” value turn out when `CC(C)CC(NC(=O)c1ccc(C(=NNC(=N)N)c2ccccc2)cc1)C(=O)N1CCN(C(=O)C(Cc2ccccc2)NC(=O)CCc2cccnc2)CC1` (mixture of isomers) [MES 10234] was run?
**A.** The value was 60 % of DMSO control.

**Q.** What about the “Luciferase 5B/3B (% of DMSO control 5B)/(% of DMSO control 3B)” value of the same compound?
**A.** The value was 58 (% of DMSO control 5B)/(% of D.

**Q.** Which “Luciferase 5B (% of DMSO control)” value does the source give for `CC(C)CC(NC(=O)c1ccc(C(=NNC(=N)N)c2ccccc2)cc1)C(=O)N1CCN(C(=O)C(Cc2ccccc2)NC(=O)c2cnccn2)CC1` (mixture of isomers) [MES 10235] here?
**A.** The value was 70 % of DMSO control.

**Q.** And the “Luciferase 5B/3B (% of DMSO control 5B)/(% of DMSO control 3B)” value?
**A.** Its value is 75 (% of DMSO control 5B)/(% of D.

**Q.** With `CC(=NNC(=N)N)c1cccc(C(=O)NC(CC(C)C)C(=O)N2CCN(C(=O)C(Cc3ccc([N+](=O)[O-])cc3)NC(=O)c3ccc(C(=NNC(=N)N)c4ccccc4)cc3)CC2)c1` (mixture of isomers) [MES 10257] as the compound, how does the “Luciferase 5B (% of DMSO control)” value read?
**A.** Its value is 34 % of DMSO control.

**Q.** And the “Luciferase 5B/3B (% of DMSO control 5B)/(% of DMSO control 3B)” value?
**A.** Its value is 60 (% of DMSO control 5B)/(% of DMSO control 3B).

**Q.** For `CC(=NN=C(N)N)c1cccc(C(=O)NC(CC(C)C)C(=O)N2CCN(C(=O)C(CC(C)C)NC(=O)c3ccc(C(=NN=C(N)N)c4ccccc4)cc3)CC2)c1` (mixture of isomers) [MES 11408], which “effect on luciferase activity” value is on record?
**A.** The value was “decrease TNFα secretion”.

**Q.** What about the “Luciferase 5B (% of DMSO control)” value of the same compound?
**A.** The value was 59 % of DMSO control.

**Q.** And the “Luciferase 5B/3B (% of DMSO control 5B)/(% of DMSO control 3B)” value?
**A.** The value was 54 (% of DMSO control 5B)/(% of D.
